Source: patent US8076297B2, “Pharmaceutical composition containing polypeptide fragments of serralysins” (Centro De Ingenieria Genetica Y Biotecnologia, priority 2004, dated 2011)

Tested on: HEp-2 cells
Experiment: Anti-proliferative assay on HEp-2 cells, MTT method
Assay type: cell-based, human
Settings: for effect on proliferation: same conditions as 3 μg/mL comparison; for proliferation: 3 μg/mL
Procedure: For the characterization of the antiproliferative activity of MG2327 “in vitro” a panel of human cell lines was evaluated (table 1). A total of 2000 cells, except for PBMC (20000), were seeded in 96 wells culture wells, and different concentrations of MG2327 were added. After 72 hours, the number of survival cells was estimated by addition of MTT (Skehan, P., Storeng, R., Scudiero, D., Monks, A., Mcmahon, J., Vistica, D., Warren, J. T., Bokesch, H., Kenney, S. and BOYD, M. R. 1990. J Natl Cancer Inst. 82:1107). The soluble formazan products were detected at 540 nm in a multiscan plate reader.

| Molecule | effect on proliferation | proliferation |
| --- | --- | --- |
| Nc1ccn([C@@H]2O[C@H](CO)[C@@H](O)[C@@H]2O)c(=O)n1 [Ara C, reference compound] | do not showed effect |  |
| O=P1(N(CCCl)CCCl)NCCCO1 (stereo not drawn) [Ciclophosfamide, reference compound] | do not showed effect |  |
| N.N.[Cl][Pt][Cl] [Cisplatin, reference compound] |  | 40% |
| COc1cccc2c1C(=O)c1c(O)c3c(c(O)c1C2=O)C[C@@](O)(C(=O)CO)C[C@@H]3O[C@H]1C[C@H](N)[C@H](O)[C@H](C)O1 [DXR, Doxorubicine, reference compound] |  | 40% |
| CN(Cc1cnc2nc(N)nc(N)c2n1)c1ccc(C(=O)N[C@@H](CCC(=O)O)C(=O)O)cc1 [Metotrexate, reference compound] | do not showed effect |  |
| CC(=O)O[C@H]1C(=O)[C@@]2(C)[C@H]([C@H](OC(=O)c3ccccc3)[C@]3(O)C[C@H](OC(=O)[C@H](O)[C@@H](NC(=O)c4ccccc4)c4ccccc4)C(C)=C1C3(C)C)[C@]1(OC(C)=O)CO[C@@H]1C[C@@H]2O [Taxol, reference compound] |  | 40% |
| CC[C@]1(O)C[C@H]2CN(CCc3c([nH]c4ccccc34)[C@@](C(=O)OC)(c3cc4c(cc3OC)N(C=O)[C@H]3[C@@](O)(C(=O)OC)[C@H](OC(C)=O)[C@]5(CC)C=CCN6CC[C@]43[C@@H]65)C2)C1 [Vincristine, reference compound] |  | 40% |
| CC[C@]1(O)C[C@@H]2CN(CCc3c([nH]c4ccccc34)[C@@](C(=O)OC)(c3cc4c(cc3OC)N(C)[C@H]3[C@@](O)(C(=O)OC)[C@H](OC(C)=O)[C@]5(CC)C=CCN6CC[C@]43[C@@H]65)C2)C1 [Vinvlastine, reference compound] |  | 40% |
| Bleomicine [reference compound] | do not showed effect |  |
